Laboratory results: US20260069588A1, “VEPDEGESTRANT FOR USE IN TREATING CANCER” (Arvinas Operation, Inc., priority 2022, published 2026)

Experiment: FIH Study Part A dose escalation: adverse events
Description: TEAEs and TRAEs from the clinical study database were coded to system organ class and preferred term using MedDRA version 22.0 and SAEs from the centralized safety database were coded using MedDRA version 25.0. The severity of adverse events was graded according to the NCI CTCAE version 5.0.

Compound: O=C1CC[C@H](N2Cc3cc(N4CCN(CC5CCN(c6ccc([C@@H]7c8ccc(O)cc8CC[C@@H]7c7ccccc7)cc6)CC5)CC4)ccc3C2=O)C(=O)N1 [Compound A, (S)-3-(5-(4-((1-(4-((1R,2S)-6-hydroxy-2-phenyl-1,2,3,4-tetrahydronaphthalen-1-yl)phenyl)piperidin-4-yl)methyl)piperazin-1-yl)-1-oxoisoindolin-2-yl)piperidine-2,6-dione]
- TRAE Nausea (200 mg (N=8)): 2 n
- TRAE Vomiting (200 mg (N=8)): 1 n
- TEAE Alanine aminotransferase increased (360 mg (N=15)): 1 n
- TEAE Arthralgia (360 mg (N=15)): 2 n
- TEAE Aspartate aminotransferase increased (360 mg (N=15)): 0 n
- TEAE Back pain (360 mg (N=15)): 2 n
- TEAE Constipation (360 mg (N=15)): 5 n
- TEAE Decreased appetite (360 mg (N=15)): 4 n
- TEAE Diarrhea (360 mg (N=15)): 4 n
- TEAE Dizziness (360 mg (N=15)): 2 n
- TEAE Fatigue (360 mg (N=15)): 4 n
- TEAE Headache (360 mg (N=15)): 4 n
- TEAE Hot flush (360 mg (N=15)): 2 n
- TEAE Hyperglycemia (360 mg (N=15)): 2 n
- TEAE Insomnia (360 mg (N=15)): 1 n
- TEAE Nausea (360 mg (N=15)): 4 n
- TEAE Pain in extremity (360 mg (N=15)): 1 n
- TEAE Vomiting (360 mg (N=15)): 5 n
- TRAE Arthralgia (360 mg (N=15)): 0 n
- TRAE Constipation (360 mg (N=15)): 3 n
- TRAE Decreased appetite (360 mg (N=15)): 2 n
- TRAE Fatigue (360 mg (N=15)): 3 n
- TRAE Hot flush (360 mg (N=15)): 1 n
- TRAE Nausea (360 mg (N=15)): 3 n
- TRAE Vomiting (360 mg (N=15)): 2 n
- TEAE Alanine aminotransferase increased (500 mg (N=22)): 2 n
- TEAE Arthralgia (500 mg (N=22)): 4 n
- TEAE Aspartate aminotransferase increased (500 mg (N=22)): 1 n
- TEAE Back pain (500 mg (N=22)): 6 n
- TEAE Constipation (500 mg (N=22)): 10 n
- TEAE Decreased appetite (500 mg (N=22)): 2 n
- TEAE Diarrhea (500 mg (N=22)): 3 n
- TEAE Dizziness (500 mg (N=22)): 2 n
- TEAE Fatigue (500 mg (N=22)): 14 n
- TEAE Headache (500 mg (N=22)): 3 n
- TEAE Hot flush (500 mg (N=22)): 5 n
- TEAE Hyperglycemia (500 mg (N=22)): 5 n
- TEAE Insomnia (500 mg (N=22)): 4 n
- TEAE Nausea (500 mg (N=22)): 9 n
- TEAE Pain in extremity (500 mg (N=22)): 5 n
- TEAE Vomiting (500 mg (N=22)): 4 n
- TRAE Arthralgia (500 mg (N=22)): 2 n
- TRAE Constipation (500 mg (N=22)): 3 n
- TRAE Decreased appetite (500 mg (N=22)): 1 n
- TRAE Fatigue (500 mg (N=22)): 9 n
- TRAE Hot flush (500 mg (N=22)): 5 n
- TRAE Nausea (500 mg (N=22)): 7 n
- TRAE Vomiting (500 mg (N=22)): 3 n
- TEAE Alanine aminotransferase increased (700 mg (N=4)): 0 n
- TEAE Arthralgia (700 mg (N=4)): 0 n
- TEAE Aspartate aminotransferase increased (700 mg (N=4)): 2 n
- TEAE Back pain (700 mg (N=4)): 2 n
- TEAE Constipation (700 mg (N=4)): 1 n
- TEAE Decreased appetite (700 mg (N=4)): 1 n
- TEAE Diarrhea (700 mg (N=4)): 1 n
- TEAE Dizziness (700 mg (N=4)): 2 n
- TEAE Fatigue (700 mg (N=4)): 2 n
- TEAE Headache (700 mg (N=4)): 1 n
- TEAE Hot flush (700 mg (N=4)): 0 n
- TEAE Hyperglycemia (700 mg (N=4)): 1 n
- TEAE Insomnia (700 mg (N=4)): 1 n
- TEAE Nausea (700 mg (N=4)): 2 n
- TEAE Pain in extremity (700 mg (N=4)): 0 n
- TEAE Vomiting (700 mg (N=4)): 1 n
- TRAE Arthralgia (700 mg (N=4)): 0 n
- TRAE Constipation (700 mg (N=4)): 0 n
- TRAE Decreased appetite (700 mg (N=4)): 0 n
- TRAE Fatigue (700 mg (N=4)): 2 n
- TRAE Hot flush (700 mg (N=4)): 0 n
- TRAE Nausea (700 mg (N=4)): 1 n
- TRAE Vomiting (700 mg (N=4)): 0 n
- Grade 4 or Grade 5 TRAEs (6 Jun 2023): no Grade 4 or Grade 5 TRAEs
- Grade 1 TEAEs (6 Jun 2023, N=83): 34.9%
- Grade 1 TRAEs (6 Jun 2023, N=83): 41.0%
- Grade 2 TEAEs (6 Jun 2023, N=83): 41.0%
- Grade 2 TRAEs (6 Jun 2023, N=83): 24.1%
- Grade 3 TEAEs (6 Jun 2023, N=83): 16.9%
- Grade 3 TRAE electrocardiogram QT prolonged (6 Jun 2023, N=83): 2 patients
- Grade 4 TEAEs (6 Jun 2023, N=83): 2.4%
- Grade 5 TEAE (6 Jun 2023, N=83): 1.2%
- TEAE of Grade ≥3 (6 Jun 2023, N=83): 20.5%
- patients with Grade 3 TRAEs (6 Jun 2023, N=83): 7.2%
- patients with at least 1 TEAE (6 Jun 2023, N=83): 96.4%
- patients with at least 1 TRAE (6 Jun 2023, N=83): 72.3%
- SAEs (6 Jun 2023, N=83, 11): 13.3%
- deaths (33 of 83 participants): 39.8%
- SAE Procedural pain, Grade (Patient 1, 30 mg QD, onset day 30, Not related): 3
- SAE Humerus fracture, Grade (Patient 2, 250 mg BID, onset day 59, Not related): 3
- SAE Embolism venous, Grade (Patient 3, 360 mg QD, onset day 42, Possibly related, SUSAR): 3
- SAE Colitis, Grade (Patient 4, 200 mg QD): 1
- SAE Neutrophil count decreased, Grade (Patient 4, 200 mg QD): 4
- SAE Stomatitis, Grade (Patient 4, 200 mg QD, onset day 79, Not related): 3
- SAE Malignant pleural effusion, Grade (Patient 5, 250 mg BID, onset day 10): 3
- SAE Cardiac arrest, Grade (Patient 5, 250 mg BID, onset day 26, Not related): 5
- SAE Embolism, Grade (Patient 6, 360 mg QD, onset day 54, Unlikely related): 3
- SAE Hypoglycemia, Grade (Patient 7, 500 mg QD, onset day 49, Not related): 4
- SAE Acute kidney injury, Grade (Patient 8, 100 mg QD, onset day 118, Not related): 3
- TEAE Alanine aminotransferase increased (Total (N=78)): 8 n
- TEAE Arthralgia (Total (N=78)): 14 n
- TEAE Aspartate aminotransferase increased (Total (N=78)): 11 n
- TEAE Back pain (Total (N=78)): 13 n
- TEAE Constipation (Total (N=78)): 24 n
- TEAE Decreased appetite (Total (N=78)): 12 n
- TEAE Diarrhea (Total (N=78)): 13 n
- TEAE Dizziness (Total (N=78)): 8 n
- TEAE Fatigue (Total (N=78)): 26 n
- TEAE Headache (Total (N=78)): 13 n
- TEAE Hot flush (Total (N=78)): 11 n
- TEAE Hyperglycemia (Total (N=78)): 10 n
- TEAE Insomnia (Total (N=78)): 9 n
- TEAE Nausea (Total (N=78)): 26 n
- TEAE Pain in extremity (Total (N=78)): 10 n
- TEAE Vomiting (Total (N=78)): 14 n
- TRAE Arthralgia (Total (N=78)): 8 n
- TRAE Constipation (Total (N=78)): 10 n
- TRAE Decreased appetite (Total (N=78)): 8 n
- TRAE Fatigue (Total (N=78)): 17 n
- TRAE Hot flush (Total (N=78)): 8 n
- TRAE Nausea (Total (N=78)): 20 n
- TRAE Vomiting (Total (N=78)): 8 n
- Grade 4 or Grade 5 TRAEs (cut-off 6 Jun 2022): no Grade 4 or Grade 5 TRAEs
- patients reporting SAEs (cut-off 6 Jun 2022): 8 of 78 patients
- total SAEs (cut-off 6 Jun 2022): 11 SAEs
- Grade 1 TEAEs (cut-off 6 Jun 2022, N=78): 34.6%
- Grade 1 TRAEs (cut-off 6 Jun 2022, N=78): 42.3%
- Grade 2 TEAEs (cut-off 6 Jun 2022, N=78): 39.7%
- Grade 2 TRAEs (cut-off 6 Jun 2022, N=78): 21.8%
- Grade 3 TEAEs (cut-off 6 Jun 2022, N=78): 11.5%
- Grade 3 hypertension (cut-off 6 Jun 2022, N=78): 2 patients
- Grade 4 TEAEs (cut-off 6 Jun 2022, N=78): 3.8%
- Grade 5 TEAE (cut-off 6 Jun 2022, N=78): 1.3%
- TEAE of Grade ≥3 (cut-off 6 Jun 2022, N=78): 16.7%
- patients with Grade 3 TRAEs (cut-off 6 Jun 2022, N=78): 5.1%
- patients with at least 1 TEAE (cut-off 6 Jun 2022, N=78): 91.0%
- patients with at least 1 TRAE (cut-off 6 Jun 2022, N=78): 69.2%
- TEAE leading to discontinuation (five of 83 patients): 6.0%
